We go through seven compounds from ChEMBL document CHEMBL1268873, “Nitrile-containing pharmaceuticals: efficacious roles of the nitrile pharmacophore” (J Med Chem, 2010).

Each structure is given as a SMILES string. Values after ≈ are worked out from the molar mass of the structure shown.

A short description of test [1]: Inhibition of HIV RT. On the set-up: species or system Human immunodeficiency virus.
A further test has as its system L1210. Briefly: Cytotoxicity against mouse L1210 cells. Type of test: functional, cell-based. The conditions noted are these: for IC50: Mus musculus, L1210.
The test system of the next test is KB. Briefly: Cytotoxicity against human KB cells. The format is functional, cell-based.

In the case of `CCc1nn(CCO)c(CC)c1Oc1cccc(C#N)c1`, the IC50 in test [1] came out at 350 nM.
For the compound `COc1cc([C@@H]2c3cc4c(cc3[C@@H](C#N)[C@H]3COCC23)OCO4)cc(OC)c1OC` (stereo not given in full), the IC5 with L1210 worked out at 3.48 ng/mL. This compound had an IC50 in the test with KB of 0.155 µg/mL (≈ 0.379 µM).
Compound `CCc1nn(CCO)c(CC)c1Oc1cc(C#N)cc(C#N)c1` [LERSIVIRINE] registered an IC50 in test [1] of 119 nM.
As to `COc1cc([C@@H]2c3cc4c(cc3[C@@H](O[C@@H]3O[C@@H]5CO[C@H](C)O[C@H]5[C@H](O)[C@H]3O)[C@H]3COCC23)OCO4)cc(OC)c1OC` (stereo not given in full), the IC50 in the test on L1210 turned out to be 0.155 µg/mL (≈ 0.263 µM); in the test with KB it was 0.308 µg/mL (≈ 0.523 µM).
In test [1], `CC(C)c1nc(COC(N)=O)n(Cc2ccncc2)c1Sc1cc(Cl)cc(Cl)c1` [CAPRAVIRINE] came in with an IC50 of 93 nM.
With `COc1cc([C@@H]2c3cc4c(cc3[C@@H](C(=O)O)[C@H]3COCC23)OCO4)cc(OC)c1OC` (stereo not given in full), the values for the IC50 in the test with L1210 and with KB were 0.164 µg/mL (≈ 0.383 µM) and 10 µg/mL (≈ 23.3 µM), respectively.
In test [1], `Cc1c(Oc2cc(Cl)cc(Cl)c2)c(C(C)C)nn1CCO` yielded a half-inhibitory concentration (IC50) of 560 nM.
